Values belong to the compound of their own block, whether it stands above or below them.
How the values were obtained:
[1] = Particle size and PDI of nucleic acid lipid nanoparticle preparations by dynamic light scattering; assay type: physicochemical
In short: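 Nanoparticle suspension (about 0.04 mg/mL mRNA) diluted in ultrapure water, mixed by gentle pipetting; particle size measured by dynamic light scattering. Zeta potential measured on the recovered sample after further dilution in ultrapure water.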

[2] = Potential characterization of nucleic acid lipid nanoparticle preparations; assay type: physicochemical
Experimental: 20 μL of the nucleic acid lipid nanoparticle solution (containing about 0.04 mg/mL mRNA) was taken and added with 780 μL of ultrapure water, used a pipette tip to gently blow and mix, and the potential of the nanopreparation was detected by Malvern particle sizer (model ZEN3700).
27.5 μL nucleic acid lipid nanoparticle solution (containing about 0.04 mg/mL mRNA) was taken and added with 200 μL ultrapure water. A pipette tip was used to gently blow the sample and mix well. The particle size of the nanopreparation was detected by Malvern Dynamic Light Scattering Instrument (Malvern Instruments Ltd., ZEN3700, UK). After the detection, the sample was recovered to an EP tube, and 600 μL of ultrapure water was added, gently blown with a pipette tip, and the potential of the nanopreparation was measured by a Malvern particle size meter.

[3] = tested on: mice; test: In vivo delivery of FLuc-mRNA lipid nanoparticles in mice, in vivo imaging (IVIS)
In short: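 Mice (n=3) received about 75 μL FLuc-mRNA LNP per mouse intramuscularly (rectus femoris), intravenously (tail vein), intraperitoneally or subcutaneously (back). After injection, D-luciferin (200 μL, 15 mg/mL) was given i.p. 10-15 min before IVIS imaging.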

[4] = DMG-PEG2000:DSPC:Chol:Lipid 1.00:4.00:60.00:35.00, N/P 18, mRNA LNP
[5] = DMG-PEG2000:DSPC:Chol:Lipid 1.71:12.98:45.31:40.00, N/P 30, mRNA LNP
[6] = DMG-PEG2000:DSPC:Chol:Lipid 2.50:16.00:16.50:65.00, N/P 18, mRNA LNP
[7] = mRNA LNP, 1.00:4.00:30.00:65.00, N/P 30
[8] = DMG-PEG2000:DSPC:Chol:Lipid 1.00:4.00:60.00:35.00, N/P 18, IV, liver
[9] = DMG-PEG2000:DSPC:Chol:Lipid 1.00:4.00:60.00:35.00, N/P 18, IV, lung
[10] = DMG-PEG2000:DSPC:Chol:Lipid 1.00:4.00:60.00:35.00, N/P 18, IV, spleen
[11] = DMG-PEG2000:DSPC:Chol:Lipid 2.50:16.00:16.50:65.00, N/P 18, IV, liver
[12] = DMG-PEG2000:DSPC:Chol:Lipid 2.50:16.00:16.50:65.00, N/P 18, IV, lung
[13] = DMG-PEG2000:DSPC:Chol:Lipid 2.50:16.00:16.50:65.00, N/P 18, IV, spleen
[14] = mRNA LNP, 1.00:4.00:30.00:65.00, N/P 30, IV, liver
[15] = mRNA LNP, 1.00:4.00:30.00:65.00, N/P 30, IV, lung
[16] = mRNA LNP, 1.00:4.00:30.00:65.00, N/P 30, IV, spleen
[17] = DMG-PEG2000:DSPC:Chol:compound 1.40:11.15:38.95:48.50, N/P 20
[18] = IM, DMG-PEG2000:DSPC:Chol:compound 1.40:11.15:38.95:48.50, N/P 20, Fluc-mRNA
[19] = IV, organ not given, DMG-PEG2000:DSPC:Chol:compound 1.40:11.15:38.95:48.50, N/P 20, Fluc-mRNA
[20] = DMG-PEG2000:DSPC:Chol:compound 1.40:11.15:38.95:48.50, N/P 30
[21] = IM, DMG-PEG2000:DSPC:Chol:compound 1.40:11.15:38.95:48.50, N/P 30, Fluc-mRNA
[22] = IV, body, DMG-PEG2000:DSPC:Chol:compound 1.40:11.15:38.95:48.50, N/P 30, Fluc-mRNA
[23] = IV, liver, DMG-PEG2000:DSPC:Chol:compound 1.40:11.15:38.95:48.50, N/P 30
[24] = IV, liver, DMG-PEG2000:DSPC:Chol:compound 1.40:11.15:38.95:48.50, N/P 30, Fluc-mRNA
[25] = IV, lung, DMG-PEG2000:DSPC:Chol:compound 1.40:11.15:38.95:48.50, N/P 30
[26] = IV, lung, DMG-PEG2000:DSPC:Chol:compound 1.40:11.15:38.95:48.50, N/P 30, Fluc-mRNA
[27] = IV, spleen, DMG-PEG2000:DSPC:Chol:compound 1.40:11.15:38.95:48.50, N/P 30
[28] = IV, spleen, DMG-PEG2000:DSPC:Chol:compound 1.40:11.15:38.95:48.50, N/P 30, Fluc-mRNA
[29] = DSPE-PEG5000:DPPC:Chol:compound 1.00:11.15:39.35:48.50, N/P 15

SMILES: CCCCCCCCCCN(C)C(=O)C(O)CN(C)CCN(C)CCN(C)CC(O)C(=O)N(C)CCCCCCCCCC (stereo not shown) [Compound L0348]
- PDI [1, 29]: 0.14
- Particle size (nm) [1, 29]: 118.20 nm
- Zeta potential (mV) [2, 29]: 5.54 mV
- IVIS ([3]; Fluc-mRNA LNP, route IM, organ not given, formulation, molar ratio and N/P as in the table): 3.49E+05
- IVIS ([3]; IV, organ not given, DSPE-PEG5000:DPPC:Chol:compound 1.00:11.15:39.35:48.50, N/P 15, Fluc-mRNA): 4.84E+05

SMILES: CCCCCCOC(C)OCCCCCCOC(=O)C(O)CN(C)CCN(C)CCN(C)CC(O)C(=O)OCCCCCCOC(C)OCCCCCC (stereo not shown) [Compound L0300]
- PDI [1, 17]: 0.13
- Particle size (nm) [1, 17]: 157.77 nm
- Zeta potential (mV) [2, 17]: 5.14 mV
- IVIS [3, 18]: 1.09E+06
- IVIS [3, 19]: 7.12E+05

More lines, main results first:

- PDI [1, 4]: 0.08 ± 0.02
- Particle size [1, 4]: 78.48 ± 0.63 nm
- PDI [1, 5]: 0.18 ± 0.00
- Particle size [1, 5]: 85.86 ± 1.26 nm
- PDI [1, 6]: 0.15 ± 0.01
- Particle size [1, 6]: 92.82 ± 0.65 nm
- PDI [1, 7]: 0.14
- Particle size (nm) [1, 7]: 90.94 nm
- Zeta potential (mV) [2, 7]: 12.33 mV
SMILES: CCCCCCCCCCCCNC(=O)C(O)CN(CCN(C)CCN(CC(O)C(=O)NCCCCCCCCCCCC)CC(O)C(=O)NCCCCCCCCCCCC)CC(O)C(=O)NCCCCCCCCCCCC (stereo not shown) [Compound L0264]
- IVIS ([3]; DMG-PEG2000:DSPC:Chol:Lipid 1.00:4.00:60.00:35.00, N/P 18, IV, body): 9.71 × 10^7
- % of organ targeting [3, 8]: 13.54%
- IVIS [3, 8]: 4.70 × 10^6
- % of organ targeting [3, 9]: 34.29%
- IVIS [3, 9]: 1.19 × 10^7
- % of organ targeting [3, 10]: 52.16%
- IVIS [3, 10]: 1.81 × 10^7
- IVIS ([3]; DMG-PEG2000:DSPC:Chol:Lipid 1.71:12.98:45.31:40.00, N/P 30, IM, whole body scan): 3.34 × 10^5
- IVIS ([3]; DMG-PEG2000:DSPC:Chol:Lipid 2.50:16.00:16.50:65.00, N/P 18, IV, body): 4.76 × 10^7
- % of organ targeting [3, 11]: 0.90%
- IVIS [3, 11]: 9.86 × 10^5
- % of organ targeting [3, 12]: 95.82%
- IVIS [3, 12]: 1.05 × 10^8
- % of organ targeting [3, 13]: 3.28%
- IVIS [3, 13]: 3.59 × 10^6
- in vivo delivery efficiency as compared to the benchmark compound SM102 ([3]; certain formulations, Table 2): superior in vivo delivery efficiency
- tissue-targeting specificity (lung vs spleen depending on molar percentage of compound) ([3]; certain formulations, Table 2): strong tissue-targeting specificity
- % of organ targeting [3, 14]: 0.40%
- IVIS [3, 14]: 2.69E+06
- % of organ targeting [3, 15]: 98.90%
- IVIS [3, 15]: 6.68E+08
- % of organ targeting [3, 16]: 0.71%
- IVIS [3, 16]: 4.76E+06
- IVIS ([3]; mRNA LNP, DMG-PEG2000:DSPC:Chol:lipid 1.00:4.00:30.00:65.00, N/P 30, IV, body): 2.87E+08

- PDI [1, 17]: 0.40
- Particle size (nm) [1, 17]: 260.70 nm
- Zeta potential (mV) [2, 17]: 9.14 mV
SMILES: CCCCCCCCCCCCOC(=O)C(O)CN(CCCCCCCN(CC(O)C(=O)OCCCCCCCCCCCC)CC(O)C(=O)OCCCCCCCCCCCC)CC(O)C(=O)OCCCCCCCCCCCC (stereo not shown) [Compound L0322]
- IVIS [3, 18]: 8.23E+05
- IVIS [3, 19]: 2.72E+05

- PDI [1, 20]: 0.10
- Particle size (nm) [1, 20]: 135.33 nm
- Zeta potential (mV) [2, 20]: 10.63 mV
SMILES: CCCCCCCCC(CCCCCC)C(=O)OCCCCCCOC(=O)C(O)CN(CCCN(C)CCCN(CC(O)C(=O)OCCCCCCOC(=O)C(CCCCCC)CCCCCCCC)CC(O)C(=O)OCCCCCCOC(=O)C(CCCCCC)CCCCCCCC)CC(O)C(=O)OCCCCCCOC(=O)C(CCCCCC)CCCCCCCC (stereo not shown) [Compound L0295]
- IVIS [3, 21]: 5.87E+07
- IVIS [3, 22]: 9.48E+07
- % of organ targeting [3, 23]: 33.17%
- IVIS [3, 24]: 2.38E+07
- % of organ targeting [3, 25]: 5.87%
- IVIS [3, 26]: 4.20E+06
- % of organ targeting [3, 27]: 60.96%
- IVIS [3, 28]: 4.37E+07

- PDI [1, 20]: 0.2
- Particle size (nm) [1, 20]: 102.07 nm
- Zeta potential (mV) [2, 20]: 28.07 mV
SMILES: CCCCCCCCCCOC(=O)C(O)CN(CCN(C)CCN(CC(O)C(=O)OCCCCCCCCCC)CC(O)C(=O)OCCCCCCCCCC)CC(O)C(=O)OCCCCCCCCCC (stereo not shown) [Compound L0337]
- IVIS [3, 21]: 3.70E+05
- IVIS [3, 22]: 2.05E+07
- % of organ targeting [3, 23]: 8.23%
- IVIS [3, 24]: 2.66E+06
- % of organ targeting [3, 25]: 2.94%
- IVIS [3, 26]: 9.51E+05
- % of organ targeting [3, 27]: 88.83%
- IVIS [3, 28]: 2.87E+07
